Measured values taken from BindingDB's records for doi:10.1016/j.bioorg.2016.03.001 (Jishou University, 2016).

biological target: Alpha-glucosidase MAL12 (Saccharomyces cerevisiae (strain ATCC 204508 / S288c), UniProt P53341); experiment: In vitro Assay of alpha-Glucosidasee Inhibitory Activity; settings: pH 6.8
Protocol: The test compounds were dissolved in DMSO to prepare the required distributing concentration. α-Glucosidase inhibitory activity was assayed by using 50 mM phosphate buffer (pH 6.8) at 37 °C. The enzymatic reaction mixture composed of 20 µL α-glucosidase (0.2 U), 10 µL of various concentrations of test compounds and 140 µL of phosphate buffer was incubated at 37 °C for 10 min. Then 0.5 mM p-nitrophenyl α-D-glucopyranoside (30 µL) was added to the mixture as a substrate. After further incubation at 37 °C for 30 min. The absorbance was measured spectrophotometrically at 405 nm. The sample solution was replaced by DMSO as a control. Acarbose was used as a positive control. All experiments were carried out in triplicates.

Chain of Alpha-glucosidase MAL12 (P53341 whole entry): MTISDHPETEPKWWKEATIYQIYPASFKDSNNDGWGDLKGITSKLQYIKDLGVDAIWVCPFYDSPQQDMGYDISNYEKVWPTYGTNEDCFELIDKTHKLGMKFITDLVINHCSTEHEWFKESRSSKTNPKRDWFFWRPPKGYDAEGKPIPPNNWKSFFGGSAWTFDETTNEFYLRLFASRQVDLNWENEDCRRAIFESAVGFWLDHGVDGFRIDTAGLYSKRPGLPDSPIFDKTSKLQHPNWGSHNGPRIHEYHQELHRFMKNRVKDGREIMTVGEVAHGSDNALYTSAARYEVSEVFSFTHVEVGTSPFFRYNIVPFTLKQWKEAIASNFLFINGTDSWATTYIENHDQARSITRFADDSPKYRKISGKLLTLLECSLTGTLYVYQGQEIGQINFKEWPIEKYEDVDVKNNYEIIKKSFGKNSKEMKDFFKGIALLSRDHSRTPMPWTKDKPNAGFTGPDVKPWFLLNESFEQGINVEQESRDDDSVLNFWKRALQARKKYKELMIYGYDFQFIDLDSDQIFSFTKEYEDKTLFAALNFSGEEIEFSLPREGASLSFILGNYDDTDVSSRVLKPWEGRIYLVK

SMILES | IC50 [µM]
O=C(N/N=C/c1ccccc1F)c1nc(-c2cc3ccccc3oc2=O)cs1 [(E)-N'-(2-Fluorobenzylidene)-4-(2-oxo-2H-chromen-3-yl)thiazole-2-carbohydrazide (7p)] | 23.6
COc1ccc(/C=N/NC(=O)c2nc(-c3cc4ccccc4oc3=O)cs2)c(O)c1 [(E)-N'-(2-Hydroxy-4-methoxybenzylidene)-4-(2-oxo-2Hchromen-3-yl)thiazole-2-carbohydrazide (7i)] | 29.9
O=C(N/N=C/c1ccccc1O)c1nc(-c2cc3ccccc3oc2=O)cs1 [(E)-N'-(2-Hydroxybenzylidene)-4-(2-oxo-2H-chromen-3-yl)thiazole-2-carbohydrazide (7b)] | 37.2
COc1ccccc1/C=N/NC(=O)c1nc(-c2cc3ccccc3oc2=O)cs1 [(E)-N'-(2-Methoxybenzylidene)-4-(2-oxo-2H-chromen-3-yl)thiazole-2-carbohydrazide (7s)] | 64.3
O=C(N/N=C/c1ccc(O)c(O)c1)c1nc(-c2cc3ccccc3oc2=O)cs1 [(E)-N'-(3,4-Dihydroxybenzylidene)-4-(2-oxo-2H-chromen-3-yl)thiazole-2-carbohydrazide (7k)] | 18.2
O=C(N/N=C/c1cccc(F)c1)c1nc(-c2cc3ccccc3oc2=O)cs1 [(E)-N'-(3-Fluorobenzylidene)-4-(2-oxo-2H-chromen-3-yl)thiazole-2-carbohydrazide (7q)] | 22.6
O=C(N/N=C/c1ccc(O)cc1)c1nc(-c2cc3ccccc3oc2=O)cs1 [(E)-N'-(4-Hydroxybenzylidene)-4-(2-oxo-2H-chromen-3-yl)thiazole-2-carbohydrazide (7c)] | 25.2
COc1ccc(/C=N/NC(=O)c2nc(-c3cc4ccccc4oc3=O)cs2)cc1 [(E)-N'-(4-Methoxybenzylidene)-4-(2-oxo-2H-chromen-3-yl)thiazole-2-carbohydrazide (7a)] | 81.7

These reach a lower IC50. Values come first.

IC50 [µM] | SMILES
16 | O=C(N/N=C/c1ccc(C(F)(F)F)cc1)c1nc(-c2cc3ccccc3oc2=O)cs1 [(E)-4-(2-Oxo-2H-chromen-3-yl)-N'-(4-(trifluoromethyl)benzylidene)thiazole-2-carbohydrazide (7o)]
10.2 | CC(C)(C)c1cc(/C=N/NC(=O)c2nc(-c3cc4ccccc4oc3=O)cs2)c(O)c(C(C)(C)C)c1 [(E)-N'-(3,5-Di-tert-butyl-2-hydroxybenzylidene)-4-(2-oxo-2Hchromen-3-yl)thiazole-2-carbohydrazide (7d)]
12 | O=C(N/N=C/c1cccc(Cl)c1)c1nc(-c2cc3ccccc3oc2=O)cs1 [(E)-N'-(3-Chlorobenzylidene)-4-(2-oxo-2H-chromen-3-yl)thiazole-2-carbohydrazide (7n)]
16.6 | O=C(N/N=C/c1ccc(O)c(F)c1)c1nc(-c2cc3ccccc3oc2=O)cs1 [(E)-N'-(3-Fluoro-4-hydroxybenzylidene)-4-(2-oxo-2Hchromen-3-yl)thiazole-2-carbohydrazide (7g)]
14 | O=C(N/N=C/c1cccc(Br)c1)c1nc(-c2cc3ccccc3oc2=O)cs1 [(E)-N'-(3-bromobenzylidene)-4-(2-oxo-2H-chromen-3-yl)thiazole-2-carbohydrazide (7r)]
10.6 | O=C(N/N=C/c1ccc(Cl)cc1)c1nc(-c2cc3ccccc3oc2=O)cs1 [(E)-N'-(4-Chlorobenzylidene)-4-(2-oxo-2H-chromen-3-yl)thiazole-2-carbohydrazide (7m)]
8.23 | O=C(N/N=C/c1cc(Cl)ccc1O)c1nc(-c2cc3ccccc3oc2=O)cs1 [(E)-N'-(5-Chloro-2-hydroxybenzylidene)-4-(2-oxo-2Hchromen-3-yl)thiazole-2-carbohydrazide (7h)]
